According to US9504676B2, “Molecules inhibiting a metabolic pathway involving the Syk protein tyrosine kinase and method for identifying said molecules” (CENTRE NATIONAL DE LA RECHERCHE SCIENTIFIQUE, priority 2008, dated 2016):

Key:
p38 and JNK = test: MAP kinase activation: p38 and JNK phosphorylation levels; format: cell-based; details: high C-13 concentration
Experimental: (§1) The association of SLP-76 with Vav and/or Nck plays a role in optimal MAP kinase activation in mast cells^27.
(§2) • 1) Chemical products and antibodies. A chemical bank of 3000 molecules (a varied subset) was acquired from ChemBridge, Inc. (San Diego, Calif.). Stocks of solutions of small molecules were prepared at a rate of 10 mM in DMSO (dimethylsulphoxide), except for C-13 (methyl 2-{5-[(3-benzyl-4-oxo-2-thioxo-1,3-thiazolidin-5-ylidene)methyl]-2-furyl}benzoate, ChemBridge ID No. 6197026) prepared in DMF (dimethylformamide). Unless specified otherwise, all the reagents were supplied by Sigma. Dinitrophenyl (DNP) hapten was acquired from Calbiochem. Sepharose GammaBind G and all the secondary antibodies were supplied by GE Health Amersham Biosciences. […] The binding of G4G11 with Syk was assessed by adding the 9E10 monoclonal antibody conjugated with HRP detecting the amino acid sequence EQKLISEEDLN of human c-myc protein located at the C-terminal end of the scFv fragment. To generate Syk mutants, targeted mutagenesis was used on GST:Syk 6-242 protein and the binding of G4G11 with the mutants was assessed in the presence of 5 μM of C-13. • 3) Cells, culture conditions and functional tests. […] The level of β-hexosaminidase released was measured 10 min later and the TNF-α titration was performed by means of a cytotoxicity test on L929 cells as described previously^10, 3 hours after stimulation. […]

LAT = test: Phosphorylation of LAT (phospho-specific antibodies); format: cell-based, rat; details: dose-dependent, RBL-2H3 cells
ERK1/2 = test: MAP kinase activation: ERK1/2 phosphorylation level; format: cell-based; details: high C-13 concentration
Experimental: as §1, §2

BALB/c mice = test: Antibody production after immunisation with TNP-KLH; format: in vivo; details: oral administration of 150 mg/kg, day 12

SMILES: COC(=O)c1ccccc1-c1ccc(/C=C2/SC(=S)N(Cc3ccccc3)C2=O)o1 [Molecule C-13, methyl 2-{5-[(3-benzyl-4-oxo-2-thioxo-1,3-thiazolidin-5-ylidene)methyl]-2-furyl}benzoate]
- phosphorylation levels of p38 and JNK (p38 and JNK): remain normal
- phosphorylation of LAT (LAT): increases
- phosphorylation level ERK1/2 (ERK1/2): reduces
- antibody responses of mice immunised with a thymus-dependent antigen (BALB/c mice): not affected
